Data published in patent publication US8981094B2, “Piperidine/piperazine derivatives” (Janssen Pharmaceutica N.V., priority 2007, dated 2015).

Molecular target: T1, human DGAT1 (Homo sapiens, UniProt O75907)
T1 construct: FLAG (N); made in house; host or cells: SF9 insect cells (pFastBac baculovirus); total cell membranes
T1 sequence (O75907 1-488): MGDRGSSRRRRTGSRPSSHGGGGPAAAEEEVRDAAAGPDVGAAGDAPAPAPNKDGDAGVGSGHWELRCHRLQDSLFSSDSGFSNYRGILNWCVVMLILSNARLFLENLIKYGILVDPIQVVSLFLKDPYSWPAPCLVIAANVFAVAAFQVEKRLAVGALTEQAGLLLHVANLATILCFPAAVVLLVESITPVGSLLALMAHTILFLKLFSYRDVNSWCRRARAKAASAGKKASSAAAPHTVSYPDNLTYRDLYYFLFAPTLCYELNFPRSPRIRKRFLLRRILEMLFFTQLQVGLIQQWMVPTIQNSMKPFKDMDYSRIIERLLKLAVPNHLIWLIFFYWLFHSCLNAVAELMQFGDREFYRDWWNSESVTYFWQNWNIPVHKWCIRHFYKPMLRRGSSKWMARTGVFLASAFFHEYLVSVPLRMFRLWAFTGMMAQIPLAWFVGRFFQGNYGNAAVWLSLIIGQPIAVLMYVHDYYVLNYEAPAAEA
Assay: Inhibition of DGAT1 activity, FlashPlate assay with DGAT1 membrane preparations and substrate micelles
Assay type: biochemical
Details: pIC50 = -logIC50, IC50 values expressed in M
Excerpt: A) Measurement of Inhibition of DGAT1 Activity by the Present Compounds
The inhibiting activity of the present compounds on DGAT1 activity was screened in a single well procedure assay using DGAT1 comprising membrane preparations and DGAT1 substrate comprising micelles and determining formed radio-active triacylglycerol coming in close proximity of a flashplate surface by radio luminescence.
Said assay is described in full detail in WO2006/067071, the content of which is incorporated herein by reference.
By DGAT1 activity is meant the transfer of coenzyme A activated fatty acids to the 3-position of 1,2-diacylglycerols, thus forming a triglyceride molecule, by enzyme DGAT1.
human DGAT1 (NM012079.2) was cloned into the pFastBac vector, containing translation start, a FLAG-tag at the N-terminus as described in literature and a viral Kozak sequence (AAX) preceding the ATG to improve expression in insect cells. Expression was done as described in literature (Cases, S., Smith, S. J., Zheng, Y., Myers H. M., Lear, S. R., Sande, E., Novak, S., Collins, C., Welch, C. B., Lusis, A. J., Erickson, S. K. and Farese, R. V. (1998) Proc. Natl. Acad. Sci. USA 95, 13018-13023.) using SF9 cells.
72 h transfected SF9 cells were collected by centrifugation (13000 rpm-15 min-4° C.) and lysed in 2×500 ml lysisbuffer (0.1M Sucrose, 50 mM KCl, 40 mM KH2PO4, 30 mM EDTA pH 7.2. Cells were homogenized by cell disruptor. After centrifugation 1380 rpm-15 min-4° C. (SN discarded), pellet was resuspended in 500 ml lysisbuffer and total cell membranes collected by ultracentrifugation at 34000 rpm(100 000 g) for 60 min (4° C.). The collected membranes were resuspended in lysis buffer, divided in aliquots and stored with 10% glycerol at −80° C. until use.
Add 1 ml dioleoyl-sn-glycerol (10 mg/ml) to 10 ml of L-α-phosphatidylcholine (1 mg/ml) and 10 ml of L-α-phosphatidyl-L-serine (1 mg/ml) in a thick glass recipient. Evaporate under nitrogen and put on ice for 15 minutes. Reconstitute in 10 ml Tris/HCl (10 mM, pH 7.4) by sonication on ice. The sonification process consists of sonification cycles of 10 seconds in the sonification bath followed by 10 seconds cool down on ice and repeating this sonification cycle till a homogeneous solution is obtained (takes about 15 minutes). The thus obtained micelles are stored at −20° C. till later use and contain DAG at a final concentration of 1.61 mM.
c) Substrate mix (for 1 384 well plate=3840 μl) • 612 μl micelles stock (51 μM final) • 16.6 μl oleoylCoA 9.7 mM • 23 μl [^3H]-oleoylCoA (49 Ci/mmol, 500 μCi/ml) • 3188.4 μl Tris pH 7.4, 10 mM
d) Enzyme mix (for 1 384 well plate=3520 μl) (5 μg/ml) • Add 11.73 μl of DGAT membrane stock (1500 μg/ml stock) to 3508 μl assay buffer.
e) Stop mix (for 1 384 well plate=7.68 ml) (250 mM) • Add 384 μl of N-ethylmaleimide (5M) to 3.456 ml DMSO 100%, and further dilute 3.84 ml of said solution with 3.84 ml DMSO 10%.
DGAT activity in membrane preparations was assayed in 50 mM Tris-HCl (pH 7.4), 150 mM MgCl2, 1 mM EDTA and 0.2% BSA, containing 50 μM DAG, 32 μg/ml PC/PS and 8.4 μM [^3H]-oleoylCoA (at a specific activity of 30 nCi/well) in a final volume of 50 μl in 384-well format using the red shifted Basic Image FlashPlate™ (Perkin Elmer Cat.No. SMP400).
In detail, 10 μl enzyme mix and 10 μl substrate mix were added to 30 μl of assay buffer, optionally in the presence of 1 μl DMSO (blank and controls) or 1 μl of the compound to be tested. This reaction mixture was incubated for 120 minutes at 37° C. and the enzymatic reaction stopped by adding 20 μl of the stop mix. The plates were sealed and the vesicles allowed to settle overnight at room temperature. Plates were centrifuged for 5 minutes at 1500 rpm and measured in Leadseeker. […]

| Structure (SMILES) | IC50 [nM] |
| --- | --- |
| O=C(CNCC1CC1)Nc1ccc(C2CCN(C(=O)Nc3c(Cl)cccc3Cl)CC2)cc1 [Compound 116] | 575 |
| CC1(C)CCN(CC(=O)Nc2ccc(C3CCN(C(=O)Nc4c(Cl)cccc4Cl)CC3)cc2)CC1 [Compound 108] | 251 |
| NCCC(=O)Nc1ccc(C2CCN(C(=O)Nc3c(Cl)cccc3Cl)CC2)cc1 [Compound 150] | 6920 |
| CC(=O)NCCC(=O)Nc1ccc(N2CCN(C(=O)Nc3c(Cl)cccc3Cl)CC2)cc1 [Compound 44] | 5130 |
| O=C(CCCc1ccccc1)Nc1ccc(N2CCN(C(=O)C(O)c3ccc(F)c(F)c3)CC2)cc1 (stereo not shown) [Compound 341] | 3720 |
| O=C(CN1CCCCC1)Nc1ccc(C2CCN(C(=O)Nc3c(Cl)cccc3Cl)CC2)cc1 [Compound 112] | 794 |
| CCC(N)C(=O)Nc1ccc(C2CCN(C(=O)Nc3c(Cl)cccc3Cl)CC2)cc1 (stereo not shown) [Compound 151] | 6920 |
| O=C(Cn1ccnc1)Nc1ccc(C2CCN(C(=O)Nc3c(Cl)cccc3Cl)CC2)cc1 [Compound 123] | 871 |
| COCCOCC(=O)N(C)CC(=O)Nc1ccc(N2CCN(C(=O)Nc3c(Cl)cccc3Cl)CC2)cc1 [Compound 163] | 1410 |
| COc1ccc(CC(=O)Nc2ccc(N3CCN(C(=O)C4(c5c(Cl)cccc5Cl)CC4)CC3)cc2)cc1 [Compound 342] | 3980 |
| O=C(CCN1CCOCC1)Nc1ccc(N2CCN(C(=O)Nc3c(Cl)cccc3Cl)CC2)cc1 [Compound 136] | 389 |
| O=C(CCCc1ccccc1)Nc1ccc(N2CCN(C(=O)C(O)c3ccc(F)cc3)CC2)cc1 (stereo not shown) [Compound 344] | 4070 |
| O=C(CCN1CCCCC1)Nc1ccc(C2CCN(C(=O)Nc3c(Cl)cccc3Cl)CC2)cc1 [Compound 128] | 2090 |
| O=C(CCCc1ccccc1)Nc1ccc(N2CCN(C(=O)C(O)c3c(F)cccc3F)CC2)cc1 (stereo not shown) [Compound 330] | 200 |
| O=C(CNCc1ccccc1)Nc1ccc(C2CCN(C(=O)Nc3c(Cl)cccc3Cl)CC2)cc1 [Compound 117] | 214 |
| CCC(NC(=O)OC(C)(C)C)C(=O)Nc1ccc(C2CCN(C(=O)Nc3c(Cl)cccc3Cl)CC2)cc1 (stereo not shown) [Compound 205] | 398 |
| COc1ccc(NC(=O)N2CCN(c3ccc(NC(=O)CCCc4ccccc4)cc3)CC2)c([N+](=O)[O-])c1 [Compound 74] | 174 |
| Cc1ccc(CC(=O)Nc2ccc(N3CCN(C(=O)Nc4cccc5ccccc45)CC3)cc2)c(C)c1 [Compound 38] | 490 |
| COC(=O)c1cccc(NC(=O)N2CCN(c3ccc(NC(=O)CCCc4ccccc4)cc3)CC2)c1C [Compound 72] | 490 |
| COc1ccc(CC(=O)Nc2ccc(N3CCN(C(=O)C(N)c4ccccc4Cl)CC3)cc2)cc1 (stereo not shown) [Compound 337] | 2450 |

The remaining lines, values ahead:

| IC50 [nM] | Structure (SMILES) |
| --- | --- |
| 2.04 | O=C(CCCc1ccccc1)Nc1ccc(N2CCN(C(=O)Nc3c(Cl)cc(CN4CCOCC4)cc3Cl)CC2)cc1 [Compound 269] |
| 87.1 | O=C(CNc1ccccc1)Nc1ccc(C2CCN(C(=O)Nc3c(Cl)cccc3Cl)CC2)cc1 [Compound 100] |
| 20 | COc1ccc(CC(=O)Nc2ccc([N+]3([O-])CCN(C(=O)Nc4c(Cl)cc(C[N+]5([O-])CCCC5)cc4Cl)CC3)cc2)cc1 [Compound 300] |
| 13.8 | O=C(CCCc1ccccc1)Nc1ccc(N2CCN(C(=O)C(O)c3ccccc3Br)CC2)cc1 (stereo not shown) [Compound 295] |
| 174 | CC(NC(=O)c1ccc(N2CCN(C(=O)Cc3c(Cl)cccc3Cl)CC2)cc1)c1ccc(F)cc1 (stereo not shown) [Compound 250] |
| 166 | O=C(CC1CCCCC1)Nc1ccc(C2CCN(C(=O)Nc3c(Cl)cccc3Cl)CC2)cc1 [Compound 124] |
| 13.8 | O=C(Cc1ccsc1)Nc1ccc(N2CCN(C(=O)Nc3c(Cl)cccc3Cl)CC2)cc1 [Compound 142] |
| 166 | COCC(NC(=O)OC(C)(C)C)C(=O)Nc1ccc(C2CCN(C(=O)Nc3c(Cl)cccc3Cl)CC2)cc1 (stereo not shown) [Compound 209] |
| 46.8 | CC(=O)c1cc(Cl)c(NC(=O)N2CCN(c3ccc(NC(=O)CCCc4ccccc4)cc3)CC2)c(Cl)c1 [Compound 53] |
| 155 | O=C(NCc1cccc(F)c1)c1ccc(N2CCN(C(=O)Cc3c(Cl)cccc3Cl)CC2)cc1 [Compound 247] |
| 10.2 | CC(N)c1cc(Cl)c(NC(=O)N2CCN(c3ccc(NC(=O)CCCc4ccccc4)cc3)CC2)c(Cl)c1 (stereo not shown) [Compound 55] |
| 35.5 | O=C(CCCc1ccccc1)Nc1ccc(N2CCN(C(=O)C(O)c3ccc(F)cc3Cl)CC2)cc1 (stereo not shown) [Compound 309] |
| 97.7 | CC(C)(C)OC(=O)NCCC(=O)Nc1ccc(C2CCN(C(=O)Nc3c(Cl)cccc3Cl)CC2)cc1 [Compound 214] |
| 10.5 | COCCN(C)C(=O)c1cc(Cl)c(NC(=O)N2CCN(c3ccc(NC(=O)CCCc4ccccc4)cc3)CC2)c(Cl)c1 [Compound 291] |
| 53.7 | O=C(NCc1ccc2c(c1)OCO2)c1ccc(N2CCN(C(=O)Cc3c(Cl)cccc3Cl)CC2)cc1 [Compound 235] |
| 15.1 | CCOC(=O)CCCC(=O)Nc1ccc(N2CCN(C(=O)Nc3c(Cl)cccc3Cl)CC2)cc1 [Compound 297] |
| 4.17 | COCCN1CCN(C(=O)c2cc(Cl)c(NC(=O)N3CCN(c4ccc(NC(=O)CCCc5ccccc5)cc4)CC3)c(Cl)c2)CC1 [Compound 275] |
| 138 | O=C(CCCc1ccccc1)Nc1ccc(N2CCN(C(=O)Nc3ccccc3C(F)(F)F)CC2)cc1 [Compound 70] |
| 22.4 | CN(CC(=O)Nc1ccc(N2CCN(C(=O)Nc3c(Cl)cccc3Cl)CC2)cc1)C(=O)CC(C)(C)C [Compound 167] |
| 7.76 | CN(CC(=O)Nc1ccc(C2CCN(C(=O)Nc3c(Cl)cccc3Cl)CC2)cc1)C(=O)OC(C)(C)C [Compound 40] |
| 5.75 | COc1ccc(CC(=O)Nc2ccc(N3CCN(C(=O)Nc4c(Cl)cccc4Cl)CC3)cc2)cc1 [Compound 144] |
| 6.17 | COc1cc(Cl)c(NC(=O)N2CCN(c3ccc(NC(=O)CCCc4ccccc4)cc3)CC2)c(Cl)c1 [Compound 190] |
| 25.7 | O=C(CCc1ccccc1)Nc1ccc(C2CCN(C(=O)Nc3c(Cl)cccc3Cl)CC2)cc1 [Compound 131] |
| 15.5 | COc1ccc(CC(=O)Nc2ccc(C3CCN(C(=O)Nc4c(Cl)cccc4Cl)CC3)cc2)cc1 [Compound 134] |
| 22.9 | COc1ccc(NC(=O)N2CCN(c3ccc(NC(=O)CCCc4ccccc4)cc3)CC2)c(C)c1 [Compound 65] |
| 112 | O=C(CC(c1ccc(Cl)cc1)c1ccc(Cl)cc1)c1ccc(N2CCN(C(=O)Nc3c(Cl)cccc3Cl)CC2)cc1 [Compound 162] |
